Values quoted from earlier work as cited in US20030087306A1, “Methods for identifying novel multimeric agents that modulate receptors” (priority 1998, published 2003).
Counter-ions that a name gives are not always drawn. Like-named read-outs stand apart in the source and are kept apart here. Blank lines part the entries; values can stand above or below the compound they belong to.

Columns and labels:
neuropeptide release = conditions: trigeminal ganglion stimulation in cats
β2-adrenergic receptor = β2-adrenergic receptor (Homo sapiens, UniProt P07550); conditions: for duration of action / onset of action (in words): human, in vivo
human coronary artery = conditions: for effectiveness in causing contraction of human isolated coronary artery: endothelium-denuded segments, in vitro
5-HT1D receptor [1] = conditions: for potency (pD2 range): rabbit saphenous vein rings
[2] = system: cholinergic receptors on bronchial smooth muscle
5-HT1 receptor = molecular target: T1, 5-HT1 receptor (Cricetulus griseus, UniProt P46636); conditions: luciferase expression, CHO cells
T1 construct: These CHO cells are screened for endogenous G protein-coupled receptors; endogenous in cells; host or cells: CHO cells with a cAMP-responsive luciferase reporter

5-HT1E binding site = 5-HT1E binding site (Homo sapiens, UniProt P28566)
5-HT1A binding site = molecular target: T2, 5-HT1A binding site (Homo sapiens, UniProt P08908)
T2 sequence (P08908 1-422): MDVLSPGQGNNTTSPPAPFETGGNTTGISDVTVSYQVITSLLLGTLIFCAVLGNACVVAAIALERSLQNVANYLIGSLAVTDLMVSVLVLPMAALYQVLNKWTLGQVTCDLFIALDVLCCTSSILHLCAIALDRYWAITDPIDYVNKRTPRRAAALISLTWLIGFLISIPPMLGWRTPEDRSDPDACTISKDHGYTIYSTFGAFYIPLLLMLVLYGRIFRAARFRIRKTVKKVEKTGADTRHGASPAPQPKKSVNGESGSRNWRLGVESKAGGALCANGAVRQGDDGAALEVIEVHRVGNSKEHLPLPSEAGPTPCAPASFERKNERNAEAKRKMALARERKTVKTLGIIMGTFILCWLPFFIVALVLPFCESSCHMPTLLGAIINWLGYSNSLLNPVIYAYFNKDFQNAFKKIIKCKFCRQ

5-HT1D receptor [3] = conditions: K+-evoked [3H]-5-HT release, guinea-pig frontal cortex slices
5-HT1D receptor [4] = molecular target: T3, 5-HT1D receptor; conditions: forskolin-stimulated adenylyl cyclase, guinea-pig substantia nigra
T3 construct: rows headed: efficacy compared to 5-HT; other: forskolin-stimulated adenylyl cyclase, guinea-pig substantia nigra

5-HT1B binding site = 5-HT1B binding site (Rattus norvegicus, UniProt P28564)
5-HT1C binding site = molecular target: T4, 5-HT1C binding site (Homo sapiens, UniProt P28335)
T4 sequence (P28335 33-458): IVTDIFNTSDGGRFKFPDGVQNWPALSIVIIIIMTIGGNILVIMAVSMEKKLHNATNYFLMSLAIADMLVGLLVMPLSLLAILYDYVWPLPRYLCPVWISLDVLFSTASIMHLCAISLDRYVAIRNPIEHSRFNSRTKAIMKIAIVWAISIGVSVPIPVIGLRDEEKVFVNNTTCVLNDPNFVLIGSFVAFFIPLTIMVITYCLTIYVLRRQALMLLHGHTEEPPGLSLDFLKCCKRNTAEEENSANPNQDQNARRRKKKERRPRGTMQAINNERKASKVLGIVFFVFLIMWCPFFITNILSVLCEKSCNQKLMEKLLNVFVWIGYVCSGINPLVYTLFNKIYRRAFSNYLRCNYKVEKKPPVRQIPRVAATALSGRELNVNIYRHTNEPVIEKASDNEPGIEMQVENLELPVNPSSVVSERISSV

5-HT2 binding site = 5-HT2 binding site (Homo sapiens, UniProt P28223)
AT1 receptor = molecular target: T5, AT1 receptor (Homo sapiens, UniProt P30556)
T5 sequence (P30556 1-359): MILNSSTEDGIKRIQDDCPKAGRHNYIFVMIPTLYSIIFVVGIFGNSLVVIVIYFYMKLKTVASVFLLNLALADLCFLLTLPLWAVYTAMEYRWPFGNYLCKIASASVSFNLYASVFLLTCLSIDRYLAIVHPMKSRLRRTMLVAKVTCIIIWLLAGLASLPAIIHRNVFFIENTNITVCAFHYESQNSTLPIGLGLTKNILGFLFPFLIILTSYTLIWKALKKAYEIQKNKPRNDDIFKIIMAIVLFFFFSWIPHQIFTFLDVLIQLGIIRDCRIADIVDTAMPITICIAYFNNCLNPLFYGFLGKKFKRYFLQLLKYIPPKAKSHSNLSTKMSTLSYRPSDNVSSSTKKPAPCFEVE

5-HT1F receptors = molecular target: T6, 5-HT1F receptors (Homo sapiens, UniProt P30939)
T6 construct: expressed in transfected cells; host or cells: NIH-3T3 cells
T6 sequence (P30939 1-366): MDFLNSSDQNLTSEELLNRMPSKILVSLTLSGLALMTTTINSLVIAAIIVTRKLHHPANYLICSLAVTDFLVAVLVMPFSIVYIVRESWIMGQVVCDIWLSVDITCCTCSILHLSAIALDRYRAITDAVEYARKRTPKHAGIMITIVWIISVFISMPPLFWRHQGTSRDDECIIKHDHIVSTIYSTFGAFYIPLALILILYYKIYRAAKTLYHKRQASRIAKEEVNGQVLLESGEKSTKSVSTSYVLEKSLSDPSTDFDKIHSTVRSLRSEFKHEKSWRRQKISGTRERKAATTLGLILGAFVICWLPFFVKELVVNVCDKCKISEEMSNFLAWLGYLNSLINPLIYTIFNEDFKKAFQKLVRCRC

[5] = system: angiotensin II receptor sites; conditions: rat adrenal cortical membranes and cultured rat smooth muscle cells
AT2 receptor = molecular target: T7, AT2 receptor (Homo sapiens, UniProt P50052)
T7 sequence (P50052 1-363): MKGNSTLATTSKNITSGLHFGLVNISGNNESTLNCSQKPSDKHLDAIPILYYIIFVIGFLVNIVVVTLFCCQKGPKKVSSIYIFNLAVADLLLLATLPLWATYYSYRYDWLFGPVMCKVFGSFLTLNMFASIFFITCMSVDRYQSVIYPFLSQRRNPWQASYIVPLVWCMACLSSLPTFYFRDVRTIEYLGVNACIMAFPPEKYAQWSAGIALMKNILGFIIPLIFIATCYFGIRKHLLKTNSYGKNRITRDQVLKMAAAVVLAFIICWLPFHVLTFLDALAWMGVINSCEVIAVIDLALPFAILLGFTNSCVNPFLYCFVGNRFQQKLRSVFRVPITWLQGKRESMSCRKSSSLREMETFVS

Sequence of β2-adrenergic receptor (P07550 whole entry): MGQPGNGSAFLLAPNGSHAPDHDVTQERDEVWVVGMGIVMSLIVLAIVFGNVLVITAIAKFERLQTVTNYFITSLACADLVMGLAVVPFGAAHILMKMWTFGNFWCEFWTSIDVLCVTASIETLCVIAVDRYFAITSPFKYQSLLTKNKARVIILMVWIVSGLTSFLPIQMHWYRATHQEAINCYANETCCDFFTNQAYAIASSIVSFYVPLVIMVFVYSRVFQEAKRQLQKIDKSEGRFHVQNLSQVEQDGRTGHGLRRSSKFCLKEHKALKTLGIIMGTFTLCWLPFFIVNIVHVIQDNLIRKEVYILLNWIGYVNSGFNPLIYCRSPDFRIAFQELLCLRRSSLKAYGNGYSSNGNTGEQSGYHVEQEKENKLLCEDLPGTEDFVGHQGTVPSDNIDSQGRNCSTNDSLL
T1 sequence (P46636 whole entry): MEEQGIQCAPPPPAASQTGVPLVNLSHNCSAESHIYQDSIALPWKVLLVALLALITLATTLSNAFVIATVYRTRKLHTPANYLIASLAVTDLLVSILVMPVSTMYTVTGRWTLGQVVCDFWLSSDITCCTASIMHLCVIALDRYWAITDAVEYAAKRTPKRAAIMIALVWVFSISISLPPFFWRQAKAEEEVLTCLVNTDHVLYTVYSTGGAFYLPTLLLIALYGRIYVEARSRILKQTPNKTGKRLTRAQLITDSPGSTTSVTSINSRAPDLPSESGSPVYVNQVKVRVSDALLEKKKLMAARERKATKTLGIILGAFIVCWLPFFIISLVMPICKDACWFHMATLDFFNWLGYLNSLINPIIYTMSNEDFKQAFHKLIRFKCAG
Sequence of 5-HT2 binding site (P28223 whole entry): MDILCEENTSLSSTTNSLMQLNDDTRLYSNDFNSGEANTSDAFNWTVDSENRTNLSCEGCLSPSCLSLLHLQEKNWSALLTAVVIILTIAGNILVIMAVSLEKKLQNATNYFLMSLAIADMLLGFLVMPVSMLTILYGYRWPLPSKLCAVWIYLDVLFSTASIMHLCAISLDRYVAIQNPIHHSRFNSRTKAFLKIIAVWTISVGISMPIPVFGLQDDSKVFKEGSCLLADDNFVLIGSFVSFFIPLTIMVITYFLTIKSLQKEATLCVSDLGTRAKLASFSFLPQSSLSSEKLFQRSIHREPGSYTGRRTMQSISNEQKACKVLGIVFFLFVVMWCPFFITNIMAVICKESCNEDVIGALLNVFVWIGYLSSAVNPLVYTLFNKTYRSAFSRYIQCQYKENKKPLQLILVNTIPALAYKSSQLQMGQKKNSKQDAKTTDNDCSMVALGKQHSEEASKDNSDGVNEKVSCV
Sequence of 5-HT1E binding site (P28566 whole entry): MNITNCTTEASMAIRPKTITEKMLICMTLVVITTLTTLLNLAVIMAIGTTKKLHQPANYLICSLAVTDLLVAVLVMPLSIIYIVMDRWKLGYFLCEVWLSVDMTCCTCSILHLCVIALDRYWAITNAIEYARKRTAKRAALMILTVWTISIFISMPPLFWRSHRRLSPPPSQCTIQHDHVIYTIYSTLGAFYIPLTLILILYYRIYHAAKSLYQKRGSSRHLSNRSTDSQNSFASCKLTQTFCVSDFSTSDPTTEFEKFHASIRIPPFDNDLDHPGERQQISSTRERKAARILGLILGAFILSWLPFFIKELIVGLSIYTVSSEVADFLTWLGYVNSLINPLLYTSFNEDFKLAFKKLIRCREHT
Sequence of 5-HT1B binding site (P28564 whole entry): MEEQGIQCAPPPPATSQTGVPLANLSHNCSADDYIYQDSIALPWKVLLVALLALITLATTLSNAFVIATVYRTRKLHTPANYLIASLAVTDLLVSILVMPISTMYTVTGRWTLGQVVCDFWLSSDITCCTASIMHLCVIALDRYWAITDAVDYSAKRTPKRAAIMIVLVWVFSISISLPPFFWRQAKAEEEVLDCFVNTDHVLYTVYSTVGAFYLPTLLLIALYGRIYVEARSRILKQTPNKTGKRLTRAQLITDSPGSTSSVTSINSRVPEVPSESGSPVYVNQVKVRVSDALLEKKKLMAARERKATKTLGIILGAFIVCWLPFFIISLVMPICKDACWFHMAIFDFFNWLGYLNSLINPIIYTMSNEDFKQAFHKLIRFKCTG

Compound: CN(C)CCc1c[nH]c2ccc(C[C@H]3COC(=O)N3)cc12 [Zolmitriptan]
- neuropeptide release (neuropeptide release): reduces neuropeptide release

Compound: c1ccc2c(c1)CC[C@H](CNCCCNC1=NCCCN1)O2 [alniditan, (−)—(R)-N-[3,4-dihydro-2H-1-benzopyran-2-ylmethyl-N′-(1,4,5,6-tetrahydro-2-pyrimidinyl)-1,3-propanediaminedihydrochloride]
- potency compared with sumatriptan (5-HT1-like receptor; anesthetized dogs): higher
- common carotid arterial blood flow (5-HT1-like receptor; anesthetized dogs, 0.63-80 μg/kg i.v.): reduces common carotid arterial blood flow
- effect on other cardiovascular variables (5-HT1-like receptor; coronary, mesenteric and renal arterial blood flow, vascular and airway resistance): comparatively little effect

Compound: CC(Cc1ccc(O)cc1)NCC(O)c1cc(O)cc(O)c1 (centres unmarked) [Fenoterol]
- duration of action (β2-adrenergic receptor): 2 to 3 h
- onset of action (in words) (β2-adrenergic receptor): rapid onset

- duration of effect after inhalation (β2-adrenergic receptor): 3 to 6 h
Compound: Cc1ccc(C(=O)Oc2ccc(C(O)CNC(C)(C)C)cc2OC(=O)c2ccc(C)cc2)cc1 (centres unmarked) [bitolterol]

- duration of action (β2-adrenergic receptor): about 5 hours
- onset of action (in words) (β2-adrenergic receptor): rapid onset of action
Compound: CCC(NC(C)C)C(O)c1ccc(O)c2[nH]c(=O)ccc12 (centres unmarked) [Procaterol]

- affinity (pIC50) (5-HT1D binding site): 8.22
- efficacy, maximal contractile response (Emax) (5-HT1D receptor [1]; compared to 5-HT and 5-CT): significantly greater
Compound: CNS(=O)(=O)Cc1ccc2[nH]cc(CCN(C)C)c2c1 [sumatriptan]
- effectiveness in causing contraction of human isolated coronary artery (human coronary artery): significantly less efficacious than 5-HT

Compound: CC(C)[N+]1(C)[C@@H]2CC[C@H]1C[C@@H](OC(=O)C(CO)c1ccccc1)C2 (some centres unmarked) [Ipratropium]
- persistence of significant effects ([2]; after inhalation): more than 4 hours
- time over which maximal responses develop ([2]; after inhalation): 30 to 90 min
- duration of useful response ([2]; some asthmatic patients): up to 6 hours

Compound: NCCc1c[nH]c2ccc(C(N)=O)cc12 [Example 5-CT, 5-carboxamidotryptamine]
- potency (pD2 range) (5-HT1D receptor [1]): 7.2-7.6

Compound: CC(C)(C)NCC(O)COc1cccc2[nH]c(C#N)cc12 (centres unmarked) [cyanopindolol]
- reversal of the response to 5-HT (5-HT1 receptor): reversed

Compound: CS(=O)(=O)Nc1ccc(Cc2noc(-c3ccc4[nH]cc(CCN)c4c3)n2)cc1 [L-694,247]
- pIC50 (5-HT1E binding site): 5.66
- pIC50 (5-HT1A binding site): 8.64
- pEC50 (5-HT1D receptor [3]): 9.4
- pEC50 (5-HT1D receptor [4]): 9.1
- affinity (pIC50) (5-HT1B binding site): 9.08
- pIC50 (5-HT1C binding site): 6.42
- pIC50 (5-HT2 binding site): 6.50
- affinity (pIC50) (5-HT1D binding site): 10.03

- selectivity for the AT subtypes (AT1 receptor; AT1 vs AT2): no selectivity
Compound: angiotensin II

- receptor reserve (5-HT1F receptors; 5-HT-induced inhibition of FSCA): 90%
- receptor occupancy required for half-maximal response (5-HT1F receptors; NIH-3T3 cells): about 10%
- potency (pD2 range) (5-HT1D receptor [1]): 6.2-7.1
Compound: NCCc1c[nH]c2ccc(O)cc12 [Example 5-HT]

- onset of action (in words) (β2-adrenergic receptor): within minutes
- duration of effect after inhalation (β2-adrenergic receptor): several hours
- duration of effects after oral administration (β2-adrenergic receptor; oral): 3 to 4 h
Compound: CC(C)NCC(O)c1cc(O)cc(O)c1 (centres unmarked) [Metaproterenol]

- reversal of the response to 5-HT (5-HT1 receptor): not
Compound: O=C(c1ccc(F)cc1)C1CCN(CCn2c(=O)[nH]c3ccccc3c2=O)CC1 [ketanserin]

Compound: Cc1cc(Cn2cnc3c2CC(C(=O)O)N(C(=O)C(c2ccccc2)c2ccccc2)C3)ccc1N (centres unmarked) [PD 123177]
- affinity (AT1 receptor; AT1 receptor): low affinity

Compound: CC(C)NCC(O)COc1cccc2[nH]ccc12 (centres unmarked) [pindolol]
- reversal of the response to 5-HT (5-HT1 receptor): reversed

Compound: CN(C)CCc1c[nH]c2ccc(Cn3cncn3)cc12 [rizatriptan]
- maximum contractile response (human coronary artery; compared with sumatriptan): lower maximum contractile response
- effectiveness in causing contraction of human isolated coronary artery (human coronary artery): less effective than sumatriptan
- effectiveness in causing contraction of human isolated coronary artery (human coronary artery; listed as MK462): significantly less efficacious than 5-HT
- effectiveness in causing contraction of human isolated coronary artery (human coronary artery; listed as MK-462): significantly less effective than sumatriptan

- inhibition of specific binding of 125I-angiotensin II [5]: inhibits the specific binding
- affinity (AT2 receptor): low affinity
Compound: CCCCc1nc(Cl)c(CO)n1Cc1ccc(-c2ccccc2-c2nn[nH]n2)cc1 [losartan]
